Assay results taken from patent US7632918B2, “Semi-synthetic glycopeptides with antibiotic activity” (Novartis Vaccines and Diagnostics, Inc., priority 2005, dated 2009).
Converted amounts (≈) assume the structure as drawn.

How the values were obtained:
Test in all cases: MIC, broth microdilution in Meuller-Hinton broth (NCCLS)
[1] = tested on: 569 E. faecium (GRE); type: cell-based; details: glycopeptide-resistant clinical isolate
Procedure: (§1) Antibacterial activity in vitro was investigated by broth microdilution method in Meuller-Hinton broth as recommended by NCCLS. All strains tested were clinical isolates either sensitive or resistant to natural glycopeptides. Results are reported in the tables as MIC (minimal inhibitory concentration) in μg/ml.
(§2) The glycopeptides were tested against a variety of strains, indicated below, including Staphylococus epidermidis, Staphylococus haemolyticus, glycopeptides-intermediate Staphylococus aureus (GISA), glocopeptide-sensitive Enterococcus faecalis (GSE), and glocopeptide-resistant Enterococcus faecalis (GRE). Results are shown in the table as minimum inhibitory concentration (MIC) in units of μg/ml: […]

[2] = tested on: 568 E. faecium (GSE); type: cell-based; details: glycopeptide-sensitive clinical isolate
Procedure: as §1, §2

[3] = tested on: 560 E. faecalis (GRE); type: cell-based, Enterococcus faecalis; details: glycopeptide-resistant clinical isolate
Procedure: as §1, §2

[4] = tested on: 559 E. faecalis (GSE); type: cell-based, Enterococcus faecalis; details: glycopeptide-sensitive clinical isolate
Procedure: as §1, §2

[5] = tested on: 533 S. epidermidis; type: cell-based, Staphylococus epidermidis; details: clinical isolate
Procedure: as §1, §2

[6] = tested on: 602 S. haemolyticus; type: cell-based, Staphylococus haemolyticus; details: clinical isolate
Procedure: as §1, §2

[7] = tested on: 3797 S. aureus (GISA); type: cell-based, Staphylococus aureus; details: glycopeptides-intermediate clinical isolate
Procedure: as §1, §2

[8] = tested on: 3798 S. aureus (GISA); type: cell-based, Staphylococus aureus; details: glycopeptides-intermediate clinical isolate
Procedure: as §1, §2

Compound	MIC 569 E. faecium (GRE) [1] [µg/mL]	MIC 568 E. faecium (GSE) [2] [µg/mL]	MIC 560 E. faecalis (GRE) [3] [µg/mL]	MIC 559 E. faecalis (GSE) [4] [µg/mL]	MIC 533 S. epidermidis [5] [µg/mL]	MIC 602 S. haemolyticus [6] [µg/mL]	MIC 3797 S. aureus (GISA) [7] [µg/mL]	MIC 3798 S. aureus (GISA) [8] [µg/mL]
CNC(CC(C)C)C(=O)NC1C(=O)NC(CC(N)=O)C(=O)NC2C(=O)NC3C(=O)NC(C(=O)NC(C(=O)O)c4cc(O)cc(O)c4-c4cc3ccc4O)C(OC3CC(C)(N)C(O)C(C)O3)c3ccc(cc3)Oc3cc2cc(c3OC2OC(CO)C(O)C(O)C2OC2CC(C)(NC(=O)CNCc3ccc(-c4ccc(Cl)cc4)cc3)C(O)C(C)O2)Oc2ccc(cc2Cl)C1O (centres unmarked) [Compound 44]	8 (≈ 4.41 µM)	1 (≈ 0.551 µM)	8 (≈ 4.41 µM)	1 (≈ 0.551 µM)	0.5 (≈ 0.275 µM)	2 (≈ 1.1 µM)	4 (≈ 2.2 µM)	4 (≈ 2.2 µM)
CCCCc1ccc(CNCC(=O)NC2(C)CC(OC3C(Oc4c5cc6cc4Oc4ccc(cc4Cl)C(O)C(NC(=O)C(CC(C)C)NC)C(=O)NC(CC(N)=O)C(=O)NC6C(=O)NC4C(=O)NC(C(=O)NC(C(=O)O)c6cc(O)cc(O)c6-c6cc4ccc6O)C(OC4CC(C)(N)C(O)C(C)O4)c4ccc(cc4)O5)OC(CO)C(O)C3O)OC(C)C2O)cc1 (centres unmarked) [Compound 57, N′-p-BuBnHNCH2CO eremomycin]	4 (≈ 2.27 µM)	0.5 (≈ 0.284 µM)	4 (≈ 2.27 µM)	0.5 (≈ 0.284 µM)	0.5 (≈ 0.284 µM)	2 (≈ 1.14 µM)	4 (≈ 2.27 µM)	4 (≈ 2.27 µM)
CNC(CC(C)C)C(=O)NC1C(=O)NC(CC(N)=O)C(=O)NC2C(=O)NC3C(=O)NC(C(=O)NC(C(=O)O)c4cc(O)cc(O)c4-c4cc3ccc4O)C(OC3CC(C)(N)C(O)C(C)O3)c3ccc(cc3)Oc3cc2cc(c3OC2OC(CO)C(O)C(O)C2OC2CC(C)(NC(=O)CNC(=O)OCC3c4ccccc4-c4ccccc43)C(O)C(C)O2)Oc2ccc(cc2Cl)C1O (centres unmarked) [Compound 221]	64 (≈ 34.8 µM)	0.5 (≈ 0.272 µM)	>64	0.5 (≈ 0.272 µM)	–	–	–	–
CNC(CC(C)C)C(=O)NC1C(=O)NC(CC(N)=O)C(=O)NC2C(=O)NC3C(=O)NC(C(=O)NC(C(=O)O)c4cc(O)cc(O)c4-c4cc3ccc4O)C(OC3CC(C)(N)C(O)C(C)O3)c3ccc(cc3)Oc3cc2cc(c3OC2OC(CO)C(O)C(O)C2OC2CC(C)(NC(=O)CNC(=O)OC34CC5CC(CC(C5)C3)C4)C(O)C(C)O2)Oc2ccc(cc2Cl)C1O (centres unmarked) [Compound 222]	>64	1 (≈ 0.558 µM)	>64	2 (≈ 1.12 µM)	–	–	–	–
CCCCCCCCOc1ccc(CNCC(=O)NC2(C)CC(OC3C(Oc4c5cc6cc4Oc4ccc(cc4Cl)C(O)C(NC(=O)C(CC(C)C)NC)C(=O)NC(CC(N)=O)C(=O)NC6C(=O)NC4C(=O)NC(C(=O)NC(C(=O)NC6C7CC8CC(C7)CC6C8)c6cc(O)cc(O)c6-c6cc4ccc6O)C(OC4CC(C)(N)C(O)C(C)O4)c4ccc(cc4)O5)OC(CO)C(O)C3O)OC(C)C2O)cc1 (centres unmarked) [Compound 265]	–	–	–	–	32 (≈ 16.3 µM)	32 (≈ 16.3 µM)	>32	>32
CCCCCCCCOc1ccc(CNCC(=O)NC2(C)CC(OC3C(Oc4c5cc6cc4Oc4ccc(cc4Cl)C(O)C(NC(=O)C(CC(C)C)NC)C(=O)NC(CC(N)=O)C(=O)NC6C(=O)NC4C(=O)NC(C(=O)NC(C(=O)NC(C)C67CC8CC(CC(C8)C6)C7)c6cc(O)cc(O)c6-c6cc4ccc6O)C(OC4CC(C)(N)C(O)C(C)O4)c4ccc(cc4)O5)OC(CO)C(O)C3O)OC(C)C2O)cc1 (centres unmarked) [Compound 266]	–	–	–	–	16 (≈ 8.02 µM)	32 (≈ 16 µM)	>32	>32
